test system: AR / CBP ternary complex; experiment: Ternary complex formation assay (sandwich ELISA, AR capture / CBP detection) in VCaP cell lysates; format: cell-based; settings: 1.5 hours treatment, sandwich ELISA (AR capture, CBP or p300 detection)
Method: Preparation of Mouse Anti-AR Antibody Coated 96 Well Plates
Black MaxiSorp plates: coat with 50 μL of mouse 1/50 diluted AR antibody (Monoclonal Antibody (AR 441 from Thermo Fisher); diluted in phosphate buffered saline (PBS). Spin the liquid to the bottom of the wells, if necessary. Incubate overnight at 4° C. Next day, wash 3 times with 200 μL of TBST. Block with 200 μL of blocking buffer (5% BSA in TBST) at room temperature for 2 hours (BSA: A4503 or A2153 from Sigma). Wash plates 3 times with TBST. Plates are ready for lysates Preparation of dimerizer treated lysates
Culture cells in 96 wells at 50K VCaP cells/well for at least 3 days. Plate in 5% Omega charcoal stripped FBS in total volume of 200 uL. Treat with bifunctional for 1.5 hours by adding 1 μL of 200× stock in DMSO. Aspirate media/compound. Add and pipet-to-mix 70 μL of 1× AlphaLisa Lysis Buffer to each well (Perkin Elmer, AlphaLISA SureFire Ultra, diluted in water). Pipet up and down when adding lysis buffer to disrupt cells. Let lysis proceed for 30 min at 4° C.
Incubate for 1 hour at room temperature. Flick out the lysates. Wash 3 times with TBST. Add 75 μL of rabbit CBP or p300 antibody to each well (diluted 1:5000 in blocking buffer (5% BSA in TBST). CBP antibody: (D6C5) Rabbit mAb #7389; p300 antibody: (D8Z4E) Rabbit mAb #86377. Incubate overnight at 4° C. Wash 3 times with 300 uL TBST, each time on shaker for 5-10 min. Prepare goat anti-rabbit antibody conjugated to HRP (1/100K dilution in blocking buffer) Invitrogen Catalog number: 32260. Add 75 μL of HRP-conjugated goat anti-rabbit antibody. Incubate at room temperature for 1 hour. Flick out the HRP-antibody mixture. Wash 7-8 times with TBST, each time on shaker for 10 min. Later washes try to overflow the wells so that no residual HRP remains bound to the sides of the well. Prepare and add 75 uL/well of QuantaRed Enhance Chemifluorescent HRP Substrate solution. Immediately read fluorescence on BMG ClarioStar (ex: 570/em 585), and repeat the read in 5 minutes and 15 minutes.

SMILES | EC50 [nM]
CC(=O)N1CCc2c(c(N3CCCc4cc(-c5cnco5)c(C(F)F)cc43)nn2C2CCN(CC3C(C)CN(c4ncc(C(=O)NC5C(C)(C)C(Oc6ccc(C#N)c(Cl)c6)C5(C)C)cn4)CC3C)CC2)C1 (centres unmarked) [Compound 424, 2-[4-[[4-[5-acetyl-3-[7-(difluoromethyl)-6-oxazol-5-yl-3,4-dihydro-2H-quinolin-1-yl]-6,7-dihydro-4H-pyrazolo[4,3-c]pyridin-1-yl]-1-piperidyl]methyl]-3,5-dimethyl-1-piperidyl]-N-[3-(3-chloro-4-cyano-phenoxy)-2,2,4,4-tetramethyl-cyclobutyl]pyrimidine-5-carboxamide] | < 1
COc1cc(OC2C(C)(C)C(NC(=O)c3ccc(N4CC5(CCC(N6CCC(n7nc(N8CCCc9cc(-c%10cnn(C)c%10)c(C(F)F)cc98)c8c7CCN(C(C)=O)C8)CC6)C5)C4)cc3)C2(C)C)ccc1C#N (centres unmarked) [Compound 345, 4-[6-[4-[5-acetyl-3-[7-(difluoromethyl)-6-(1-methylpyrazol-4-yl)-3,4-dihydro-2H-quinolin-1-yl]-6,7-dihydro-4H-pyrazolo[4,3-c]pyridin-1-yl]-1-piperidyl]-2-azaspiro[3.4]octan-2-yl]-N-[3-(4-cyano-3-methoxy-phenoxy)-2,2,4,4-tetramethyl-cyclobutyl]benzamide] | < 1
CC(=O)N1CCc2c(c(N3CCCc4cc(-c5cnn(C)c5)c(C)cc43)nn2C2CCN(C(=O)CC3CCN(c4ncc(C(=O)NC5C(C)(C)C(Oc6ccc(C#N)c(Cl)c6)C5(C)C)cn4)CC3)CC2)C1 (centres unmarked) [Compound 176, 2-[4-[2-[4-[5-acetyl-3-[7-methyl-6-(1-methylpyrazol-4-yl)-3,4-dihydro-2H-quinolin-1-yl]-6,7-dihydro-4H-pyrazolo[4,3-c]pyridin-1-yl]-1-piperidyl]-2-oxo-ethyl]-1-piperidyl]-N-[3-(3-chloro-4-cyano-phenoxy)-2,2,4,4-tetramethyl-cyclobutyl]pyrimidine-5-carboxamide] | < 1
CC(=O)N1CCc2c(c(N3CCCc4cc(-c5cnn(C)c5)c(C(F)F)cc43)nn2C2CCC(N(C)C3CCN(c4ncc(C(=O)NC5C(C)(C)C(Oc6ccc(C#N)c(Cl)c6)C5(C)C)cn4)CC3)CC2)C1 (centres unmarked) [Compound 282, 2-[4-[[4-[5-acetyl-3-[7-(difluoromethyl)-6-(1-methylpyrazol-4-yl)-3,4-dihydro-2H-quinolin-1-yl]-6,7-dihydro-4H-pyrazolo[4,3-c]pyridin-1-yl]cyclohexyl]-methyl-amino]-1-piperidyl]-N-[3-(3-chloro-4-cyano-phenoxy)-2,2,4,4-tetramethyl-cyclobutyl]pyrimidine-5-carboxamide] | < 1
CC(=O)N1CCc2c(c(N3CCCc4cc(-c5cnn(C)c5)c(C(F)F)cc43)nn2C2CCN(C(=O)C3CCN(c4ccc(C(=O)NC5C(C)(C)C(Oc6ccc(C#N)c(Cl)c6)C5(C)C)cc4)CC3)CC2)C1 (centres unmarked) [Compound 116, 4-[4-[4-[5-acetyl-3-[7-(difluoromethyl)-6-(1-methylpyrazol-4-yl)-3,4-dihydro-2H-quinolin-1-yl]-6,7-dihydro-4H-pyrazolo[4,3-c]pyridin-1-yl]piperidine-1-carbonyl]-1-piperidyl]-N-[3-(3-chloro-4-cyano-phenoxy)-2,2,4,4-tetramethyl-cyclobutyl]benzamide] | > 100
CNC(=O)N1CCc2c(c(N3CCCc4cc(-c5cnn(C)c5)c(C(F)F)cc43)nn2C2CCN(CCOCc3ncc(C(=O)NC4C(C)(C)C(Oc5ccc(C#N)c(Cl)c5)C4(C)C)cn3)CC2)C1 (centres unmarked) [Compound 86, 1-[1-[2-[[5-[[3-(3-chloro-4-cyano-phenoxy)-2,2,4,4-tetramethyl-cyclobutyl]carbamoyl]pyrimidin-2-yl]methoxy]ethyl]-4-piperidyl]-3-[7-(difluoromethyl)-6-(1-methylpyrazol-4-yl)-3,4-dihydro-2H-quinolin-1-yl]-N-methyl-6,7-dihydro-4H-pyrazolo[4,3-c]pyridine-5-carboxamide] | > 100
CC(=O)N1CCc2c(c(N3CCCc4cc(-c5cnn(C)c5)c(C(F)F)cc43)nn2C2CCN(C(=O)C3CCN(c4ccc(C(=O)NC5C(C)(C)C(Oc6ccc(C#N)c(Cl)c6)C5(C)C)cn4)CC3)CC2)C1 (centres unmarked) [Compound 115, 6-[4-[4-[5-acetyl-3-[7-(difluoromethyl)-6-(1-methylpyrazol-4-yl)-3,4-dihydro-2H-quinolin-1-yl]-6,7-dihydro-4H-pyrazolo[4,3-c]pyridin-1-yl]piperidine-1-carbonyl]-1-piperidyl]-N-[3-(3-chloro-4-cyano-phenoxy)-2,2,4,4-tetramethyl-cyclobutyl]pyridine-3-carboxamide] | < 1

Further lines, results first:

EC50 [nM] | SMILES
> 100 | CC(=O)N1CCc2c(c(Nc3ccc(-c4cnn(C)c4)cc3F)nn2C2CCN(C3CCN(c4ncc(C(=O)NC5C(C)(C)C(Oc6ccc(C#N)c(Cl)c6)C5(C)C)cn4)CC3)C2)C1 (centres unmarked) [Compound 8, 2-[4-[3-[5-acetyl-3-[2-fluoro-4-(1-methylpyrazol-4-yl)anilino]-6,7-dihydro-4H-pyrazolo[4,3-c]pyridin-1-yl]pyrrolidin-1-yl]-1-piperidyl]-N-[3-(3-chloro-4-cyano-phenoxy)-2,2,4,4-tetramethyl-cyclobutyl]pyrimidine-5-carboxamide]
< 1 | COc1cc(OC2C(C)(C)C(NC(=O)c3ccc(N4CC(N5CC6(CCC(n7nc(N8CCCc9cc(-c%10cnn(C)c%10)c(C(F)F)cc98)c8c7CCN(C(C)=O)C8)CC6)C5)C4)cc3)C2(C)C)ccc1C#N (centres unmarked) [Compound 370, 4-[3-[7-[5-acetyl-3-[7-(difluoromethyl)-6-(1-methylpyrazol-4-yl)-3,4-dihydro-2H-quinolin-1-yl]-6,7-dihydro-4H-pyrazolo[4,3-c]pyridin-1-yl]-2-azaspiro[3.5]nonan-2-yl]azetidin-1-yl]-N-[3-(4-cyano-3-methoxy-phenoxy)-2,2,4,4-tetramethyl-cyclobutyl]benzamide]
< 1 | CC(=O)N1CCc2c(c(-c3cccc4cc(-c5ccc(COCC6CCN(c7ncc(C(=O)NC8C(C)(C)C(Oc9ccc(C#N)c(Cl)c9)C8(C)C)cn7)CC6)nc5)ncc34)nn2C2CCOCC2)C1 (centres unmarked) [Compound 143, 2-[4-[[5-[8-(5-acetyl-1-tetrahydropyran-4-yl-6,7-dihydro-4H-pyrazolo[4,3-c]pyridin-3-yl)-3-isoquinolyl]-2-pyridyl]methoxymethyl]-1-piperidyl]-N-[3-(3-chloro-4-cyano-phenoxy)-2,2,4,4-tetramethyl-cyclobutyl]pyrimidine-5-carboxamide]
< 1 | COc1cc(OC2C(C)(C)C(NC(=O)c3ccc(N4CC5(CCC(N6CCC(n7nc(N8CCCc9cc(-c%10cn(C)cn%10)c(C(F)F)cc98)c8c7CCN(C(C)=O)C8)CC6)CC5)C4)cc3)C2(C)C)ccc1C#N (centres unmarked) [Compound 426, 4-[7-[4-[5-acetyl-3-[7-(difluoromethyl)-6-(1-methylimidazol-4-yl)-3,4-dihydro-2H-quinolin-1-yl]-6,7-dihydro-4H-pyrazolo[4,3-c]pyridin-1-yl]-1-piperidyl]-2-azaspiro[3.5]nonan-2-yl]-N-[3-(4-cyano-3-methoxy-phenoxy)-2,2,4,4-tetramethyl-cyclobutyl]benzamide]
< 1 | CC(=O)N1CCc2c(c(N3CCCc4cc(-c5cnn(C)c5)c(C(F)F)cc43)nn2C2CCN(C3CC4(CCN(c5ncc(C(=O)NC6C(C)(C)C(Oc7ccc(C#N)c(Cl)c7)C6(C)C)cn5)C4)C3)CC2)C1 (centres unmarked) [Compound 346, 2-[2-[4-[5-acetyl-3-[7-(difluoromethyl)-6-(1-methylpyrazol-4-yl)-3,4-dihydro-2H-quinolin-1-yl]-6,7-dihydro-4H-pyrazolo[4,3-c]pyridin-1-yl]-1-piperidyl]-6-azaspiro [3.4]octan-6-yl]-N-[3-(3-chloro-4-cyano-phenoxy)-2,2,4,4-tetramethyl-cyclobutyl]pyrimidine-5-carboxamide]
< 1 | COc1cc(OC2C(C)(C)C(NC(=O)c3ccc(N4CC5(CCC(N6CCC(n7nc(N8CCCc9cc(-c%10cncs%10)c(C(F)F)cc98)c8c7CCN(C(C)=O)C8)CC6)CC5)C4)cc3)C2(C)C)ccc1C#N (centres unmarked) [Compound 428, 4-[7-[4-[5-acetyl-3-[7-(difluoromethyl)-6-thiazol-5-yl-3,4-dihydro-2H-quinolin-1-yl]-6,7-dihydro-4H-pyrazolo[4,3-c]pyridin-1-yl]-1-piperidyl]-2-azaspiro[3.5]nonan-2-yl]-N-[3-(4-cyano-3-methoxy-phenoxy)-2,2,4,4-tetramethyl-cyclobutyl]benzamide]
> 100 | CC(=O)N1CCc2c(c(N3CCCc4cc(-c5cnn(C)c5)c(C(F)F)cc43)nn2C2CCC3(CC2)CCN(c2ncc(C(=O)NC4C(C)(C)C(Oc5ccc(C#N)c(Cl)c5)C4(C)C)cn2)C3)C1 (centres unmarked) [Compound 408, 2-[8-[5-acetyl-3-[7-(difluoromethyl)-6-(1-methylpyrazol-4-yl)-3,4-dihydro-2H-quinolin-1-yl]-6,7-dihydro-4H-pyrazolo[4,3-c]pyridin-1-yl]-2-azaspiro[4.5]decan-2-yl]-N-[3-(3-chloro-4-cyano-phenoxy)-2,2,4,4-tetramethyl-cyclobutyl]pyrimidine-5-carboxamide]
